The nature of data set [1]: Prodrug conversion assay in postprandial rat lymph. The data set is classed as in vitro ADME. To be noted: CM-rich postprandial rat lymph, ex vivo; relative to rat plasma. On the procedure:
The prodrugs were tested for their stability and conversion into their corresponding active drug using fasted state simulated intestinal fluid (FaSSIF) with added esterase enzyme activity (20 IU/mL), rat plasma, and postprandial rat lymph. The FaSSIF was prepared as previously described in the literature. The medium was pre-heated to 37 °C prior to the assay for 5 min. The experiment was initiated by spiking stock solutions of prodrugs to give a final concentration of 10 μM of the prodrugs in the medium. When the stability of the artificial emulsion-associated prodrugs was tested in plasma, the association of compounds with artificial emulsion was performed prior to stability experiments and the concentrations of the compounds in the associated emulsion were measured. The emulsion was then spiked to give a concentration of 10 μM of the prodrugs in plasma. The reaction mixtures were incubated at 37 °C and shaken at 200 rpm on a temperature-controlled orbital shaker (Thermo Scientific MaxQ4000, Waltham, MA, USA) for 4 h. Samples were withdrawn at pre-determined time points, and the reaction was terminated by addition of acetonitrile. The samples were then subjected to sample preparation and analysis as described below. […] Half-life of active drug release (t1/2) was calculated by the following equation: t1/2 = −0.693/k. […]

Data set [2] in a line: Plasma pharmacokinetics following intravenous administration in rats. It is filed as in vivo. The note with it: i.v., dose equivalent to 2.5 mg/kg BEX, rat; in words. The protocol:
The protocols for pharmacokinetic and biodistribution experiments in this study were reviewed and approved by the University of Nottingham Ethical Review Committee in accordance with the Animals [Scientific Procedures] Act 1986. Male Sprague Dawley rats (Charles River Laboratories, UK) weighing 350–380 g were used. The animals were housed in the Bio Support Unit, University of Nottingham. Continuous lymph collection was performed according to a protocol approved by the Institutional Animal Care and Use Committee at Rutgers, The State University of New Jersey. Male Sprague Dawley rats (Envigo, Inc., NJ, USA) weighing 300–350 g were used for the continuous lymph collection. […]
Jugular vein cannulation surgery procedures were conducted under general anaesthesia for blood sampling. […] Blood samples of 250 μL volume were collected from the cannula at pre-determined time points following administration. […]
The HPLC-UV system consisting of a separation module (Waters Alliance 2695) equipped with a UV detector (Waters 996) was used for analysis. […] BEX and its prodrugs were detected at 259 nm and RA and its prodrugs at 357 nm.
Assessment of statistical significance of differences between two groups was conducted by means of two-tailed unpaired t-test. Statistical significance among three or more groups was assessed by means of a one-way ANOVA followed by Tukey's multiple comparisons test. […]

For `C=C(c1ccc(C(=O)OCC)cc1)c1cc2c(cc1C)C(C)(C)CCC2(C)C` [prodrug 2], the “half-life of active drug release in postprandial lymph” value in data set [1] is listed as “prolonged”. In addition, the “conversion of prodrug to BEX in plasma in vivo” value in data set [2] is “rapidly converted to BEX”.
